Results on three compounds are retold here after patent US20210371385A1, “POLYMORPHIC AND AMORPHOUS FORMS OF ISOQUINOLINONE AND METHODS OF USE THEREOF” (Sojournix, Inc., priority 2018, published 2021).

≈ marks a conversion by molar mass, not a printed value. Where “and” joins values, the source holds several entries; their conditions need not be identical. Identical values can stand only once. Entries after “also recorded” stand apart in the source; their conditions may differ.

Holding throughout (format): physicochemical
Data set [1] is described as follows: Solubility in water and simulated fluids (FaSSIF, FaSSGF) at 37 °C. Conditions: for Solubility / solubility at 24 h: 37 °C; for Solubility in FaSSIF: fasted state simulated intestinal fluid; for solubility at 24 h: thermodynamic from solid. The text has this:
The solids were slurried in the respective solution for 24 hrs then the liquid isolated by syringe filtration for analysis by HPLC. The data are summarized in Table 19; the solubility of all forms in all solutions is on the microgram scale. Essentially, none of these are substantially advantageous over the other ones in terms of equilibrium solubility.

The nature of data set [2]: Stability in high humidity (40 °C/75% RH, XRPD). Particulars: one week. On the procedure:
Patterns α (L100142-37-5), β (L100142-1-1) and free flowing amorphous solid (L100142-19-1) SJB-01 were exposed to a 40° C./75% RH environment for one week.

Data set [3] can be described thus: Solid form stability at ambient conditions by XRPD. Particulars: for Solid form stability: ambient conditions / room temperature, XRPD.
Data set [4] can be described thus: Dynamic vapor sorption (DVS). The procedure: Pattern β was analyzed using DVS with two sorption/desorption cycles. The solid reversibly picked-up about 0.12% between 2-95% relative humidity at 25° C.
Dynamic Vapor Sorption (DVS) was done using a DVS Intrinsic 1. The sample is loaded into a sample pan and suspended from a microbalance. A typical sample mass for DVS measurement is 25 mg. Nitrogen gas bubbled through distilled water provides the desired relative humidity. A typical measurement comprises the steps:
2. 50% to 2%. (50%, 40%, 30%, 20%, 10% and 2%)-Hold minimum of 5 mins and maximum of 60 minutes at each humidity. The pass criteria is less than 0.002% change.
3. 2% to 95% (2%, 10%, 20%, 30%, 40%, 50%, 60%, 70%, 80%, 90%, 95%)-Hold minimum of 5 mins and maximum of 60 minutes at each humidity. The pass criteria is less than 0.002% change.
4. 95% to 2% (95%, 80%, 70%, 60%, 50%, 40%, 30%, 20%, 10%, 2%)-Hold minimum of 5 mins and maximum of 60 minutes at each humidity. The pass criteria is less than 0.002% change.
5. 2% to 50% (2%, 10%, 20%, 30%, 40%, 50%)-Hold minimum of 5 mins and maximum of 60 minutes at each humidity. The pass criteria is less than 0.002% change.

Data set [5] is described as follows: Thermodynamic equilibrium aqueous solubility. Particulars: pH 7.4.
The nature of data set [6]: Solubility in vehicles/excipients for in vivo and toxicological studies. Conditions: for Maximum single dose in solubilized form: dogs, 100% PEG 400, maximum volume 1-2 ml/kg; for Maximum dose in solubilized form, 100% PEG 400 / Maximum dose in solubilized form, Gelucire:PEG 400 90:10: rats; for Maximum dose in solubilized form, 100% PEG 400: 5 ml/kg is maximum volume dose; for Maximum dose in solubilized form, Gelucire:PEG 400 90:10: 10 ml/kg is maximum volume dose. The procedure:
In addition, the solubility of SJB-01 was investigated in a large number of vehicles for use in in vivo pharmacological studies, as well as toxicological evaluation of the compound.
Formulations for toxicological evaluation of SJB-01 were considered. The highest solubility was obtained with 100% PEG 400 and a mixture of Gelucire and PEG 400. Since a formulation with Gelucire:PEG required increased handling time, including dosing at ˜45° C., 100% PEG 400 was chosen for formulation purpose in the early toxicological evaluation including mini-MTD (maximum tolerated dose) and a 14 days toxicological dosing study. The maximum dose reached was 140 mg/kg-the highest possible dose achievable with PEG 400 as vehicle. […] From a formulation perspective, this can only be done by using Gelucire:PEG as a vehicle, under the assumption that a solution will lead to a higher bioavailability than dosing the compound in a PEG 400 suspension. In the table below, the maximum dose of SJB-01 given on a solubilized form is provided, taking into account the tolerated dose of the vehicle as well.

The nature of data set [7]: Solubility in bio-relevant media. On the procedure:
The solubility of the beta polymorph form of SJB-01 was further examined in bio-relevant media. The fasted-state small intestinal fluid (FaSSIF) contained 3 mM sodium taurocholate (bile acid), 0.75 mM lecithin (phosphorlipid) and phosphate buffer to maintain a pH of 6.0. The fed-state small intestinal fluid (FeSSIF) contained 5-fold higher concentration of sodium taurocholate and lecithin and thus higher capacity for micellar solubilization of the compound. The pH in the FeSSIF buffer was maintained to 5.0 with acetate buffer.

Data set [8] can be described thus: Intrinsic Dissolution Rate (IDR). Particulars: 0.001 M HCl pH 3.0; pressed tablet. The procedure:
The Intrinsic Dissolution Rate (IDR) was calculated for a beta polymorph form of SJB-01. A tablet of the compound was pressed and put into a dissolution chamber. It was subsequently measured how fast the substance was dissolved from the surface into the solvent. Initially, the experiment was performed in a standard buffer (0.001 M HCl pH 3.0), reflecting the stomach conditions at fastened state.
Due to the high impact of bile components on solubilisation of SJB-01, IDR was performed in FeSSIF media, reflecting the fed-state in humans.

A short description of data set [9]: Solubility in buffered solutions vs pH at 37 °C (HPLC). Particulars: aqueous buffers, aqueous buffer, thermodynamic from solid; about 37 °C; read-out: Solubility in buffered solution (range). The procedure: Aqueous buffers between pH 1.3 and 7.4 (13 total) were prepared and 3 mL added to about 15 mg of SJB-01 (L100149-44-1, jet-milled). These slurries were stirred on a hot-plate at 37° C. for 24 hours. Sonication and vortexting was employed within the first 2 hours of stirring to ensure thorough mixing and wetting of the solids as there was a clear tendency for them to clump and float at the liquid surface. After sonication and vortexing there was substantial solids suspended in solution (slurry) along with the solids that floated on top. At 24 hours, the samples were collected by syringe filtration of about 2 mL of solution. The first 1 mL of solution that passed through the filter was discarded and the second 0.5-1 mL of solution was used for HPLC analysis. The samples were injected into HPLC without dilution.
SJB-01 (L100149-44-1) was weighed directly into volumetric flasks and filled to volume with ACN:water (6:4 vol.) to build a calibration curve. […] Details for the HPLC method used are given in Table 34; these follow the parameters used for previous dissolution study.

The mark [10] stands for this setting: about 37 °C, listed as amorphous form.
Where [11] appears, read: about 37 °C, listed as beta form.

For the compound `CCNn1c(C)c(C(=O)N[C@H](c2ccccc2)C2CC2)c2cccc(F)c2c1=O` [Amorphous, 2-ethylamino-8-fluoro-3-methyl-1-oxo-1,2-dihydro-isoquinoline-4-carboxylic acid ((S)-cyclopropyl-phenyl-methyl)-amide], the Solubility in data set [1] (FaSSGF, 24 hrs) is 6 µg/mL (≈ 15.2 µM); in [1] (FaSSIF, 24 hrs), 18 µg/mL (≈ 45.7 µM); in [1] (Water, 24 hrs), 5 µg/mL (≈ 12.7 µM). For the same compound, the “Solubility in water and simulated fluids (range)” value in data set [1] (setting [10]) was 5 to 18 µg/mL. Further, in data set [1] (fasted state simulated gastric fluid, about 37 °C, listed as amorphous form), the “Solubility in FaSSGF” value is 6 µg/mL (≈ 15.2 µM). The “Solubility in FaSSIF” value in [1] (setting [10]) is 18 µg/mL (≈ 45.7 µM). The compound also returned a Solubility in water in [1] (water, about 37 °C, listed as amorphous form) of 5 µg/mL (≈ 12.7 µM). Besides, the “Solid form by XRPD after humidity exposure” value (“Solid form by XRPD” below) in [2] (listed as amorphous solid) is reported as “converted considerably to Pattern β”. Besides, the Solid form stability result in data set [3] (listed as powdered amorphous freebase) is reported as “still showed an amorphous pattern”. In addition, the “Time amorphous form remained stable” value in data set [3] (ambient environment) is reported as “at least 17 days”.
Consider `CCNn1c(C)c(C(=O)N[C@H](c2ccccc2)C2CC2)c2cccc(F)c2c1=O` [Pattern α, 2-ethylamino-8-fluoro-3-methyl-1-oxo-1,2-dihydro-isoquinoline-4-carboxylic acid ((S)-cyclopropyl-phenyl-methyl)-amide], for which, in [4] (2-95% relative humidity, 25 °C), the “Moisture pick-up by DVS” value is reported as “about 0.6%”. Besides, in data set [1] (FaSSGF, 24 hrs), the Solubility was 7 µg/mL (≈ 17.8 µM). Moreover, the solubility at 24 h in [1] (FaSSGF, fassgf or other biorelevant, fasted state simulated gastric fluid, about 37 °C, read-out: Solubility in FaSSGF) was 7 µg/mL (≈ 17.8 µM). In addition, the Solubility in data set [1] (FaSSIF, 24 hrs) was 8 µg/mL (≈ 20.3 µM). Also, in [1] (about 37 °C, listed as alpha form), the “Solubility in FaSSIF” value was 8 µg/mL (≈ 20.3 µM). The solubility at 24 h in data set [1] (water, water, water, about 37 °C, read-out: Solubility in water) is 6 µg/mL (≈ 15.2 µM). The solubility at 24 h in data set [1] (water, FaSSIF and FaSSGF, about 37 °C, read-out: Solubility in water and simulated fluids (range)) is 6 to 8 µg/mL (≈ 15.2 to 20.3 µM). Besides, the “Solid form by XRPD” value in [2] was “converted considerably to Pattern β”. The Solid form stability entry in data set [3] was “not stable; also recorded: less stable than Pattern β”. Besides, the solubility (thermodynamic) in data set [5] (aqueous medium, aqueous buffer, thermodynamic from solid) is approximately 14 µg/mL (≈ 35.6 µM). Besides, in data set [6], the “Solubility in 100% PEG 400” value amounted to 32 mg base/ml and the “Solubility in Gelucire:PEG 400 90:10” value was 40 mg base/ml. Besides, in [6] (listed as α-form), the “Maximum single dose in solubilized form” value lay in the range of 28 to 56 mg/kg; the “Maximum dose in solubilized form, 100% PEG 400” value worked out at 140 mg/kg; the “Maximum dose in solubilized form, Gelucire:PEG 400 90:10” value is 360 mg/kg.
In the case of `CCNn1c(C)c(C(=O)N[C@H](c2ccccc2)C2CC2)c2cccc(F)c2c1=O` [Pattern β, 2-ethylamino-8-fluoro-3-methyl-1-oxo-1,2-dihydro-isoquinoline-4-carboxylic acid ((S)-cyclopropyl-phenyl-methyl)-amide], the Hygroscopicity entry in data set [4] (DVS, two sorption/desorption cycles) is “not hygroscopic”. Besides, in data set [1] (FaSSGF (fasted state simulated gastric fluid), fassgf or other biorelevant, FaSSGF, 24 hrs, read-out: Solubility), the solubility at 24 h was 6 µg/mL (≈ 15.2 µM). The compound also returned a Solubility in data set [1] (FaSSIF, 24 hrs) of 8 µg/mL (≈ 20.3 µM). Moreover, in [1] (setting [11]), the “Solubility in water and simulated fluids (range)” value was 5 to 8 µg/mL and 6 to 10 µg/mL; the “Solubility in FaSSIF” value was 8 µg/mL (≈ 20.3 µM). Also, the solubility at 24 h in data set [1] (water, water, Water, 24 hrs, read-out: Solubility) is 5 µg/mL (≈ 12.7 µM). The “Solid form by XRPD” value in data set [2] was “remained unchanged”. Further, in data set [3], the Solid form stability result was “most stable polymorph”. Also, in data set [5], the Thermodynamic equilibrium solubility was approximately 8 μg base/ml. In data set [6], the “Solubility in 100% PEG 400” value is reported as 22 mg base/ml and the “Solubility in Gelucire:PEG 400 90:10” value was determined as 26 mg base/ml. Also, in data set [6] (listed as β-form), the “Maximum single dose in solubilized form” value lay within 20 to 40 mg/kg; the “Maximum dose in solubilized form, 100% PEG 400” value turned out to be 100 mg/kg; the “Maximum dose in solubilized form, Gelucire:PEG 400 90:10” value was 230 mg/kg. In addition, the “Solubility in bio-relevant media” value in data set [7] (0.001M HCl pH 3.0) came to 8 μg base/ml. Besides, in data set [7] (FaSSIF, pH 6.0), the “Solubility in bio-relevant media” value is recorded as 11 μg base/ml. Moreover, the “Solubility in bio-relevant media” value in data set [7] (FeSSIF, pH 5.0) is 19 μg base/ml. The “Intrinsic Dissolution Rate (IDR)” value in data set [8] was 0.002 mg/cm^2·min. Besides, in data set [9], the solubility at 24 h fell in the range of 6.4 to 9.8 µg/mL (≈ 16.3 to 24.9 µM).
